Measurements reported in patent US9701627B2, “LRRK2 GTP binding inhibitors for treatment of Parkinson's disease and neuroinflammatory disorders” (University of Maryland, Baltimore, priority 2014, dated 2017).

What was measured:
LRRK2 [1] = test: LRRK2 GTP binding assay (GTP-agarose pull-down from lysates of transfected HEK293T cells); set-up: species or system human; conditions: 10 μM
Protocol: LRRK2 kinase assay was adapted from previous studies using autophosphorylation of cell lysates or brain homogenates. Briefly, HEK 293T were transiently transfected with various LRRK2 variants or kinase domain fragments for 36 h, followed by […] serum starvation for 12 h, and then treated with compound 70 and 68 for 1 h. The cells were harvested using lysis buffer (Cell Signaling). Mouse brains were homogenated using RIPA buffer (Cell Signaling). The resulting cell lysates or brain homogenates were immunoprecipitated using anti-Flag antibodies. The immunoprecipitates were subjected to Western blot using anti-phosphorylation LRRK2 antibodies at S935 and S2032 residues as described previously. In some cases, immunoprecipitates were incubated with kinase reaction buffer for 90 min at 30° C. containing 50 mM MgCl2, 500 μM ATP, and 10 μCi of [γ-^32P]ATP (3,000 Ci/mmol) followed by 4-12% SDS/PAGE separation and blotted onto PVDF membranes. Quantification was performed with a phosphoimager (Bio-Rad Molecular Imager FX). GTP binding assays were performed. […] The resulting beads were washed three times with cell lysis buffer, and bound protein was eluted by adding SDS-PAGE sample buffer and heating for 10 min at 72° C. Precipitates were subjected to Western blot analysis using anti-Flag antibodies.
GTP binding assays were performed using GTP-agarose beads (Sigma) as described previously. Lysates of HEK 293T cells expressing LRRK2 proteins were incubated with 68 or FX2149 at various concentrations for 1 h. The GTP-agarose beads were added for an additional 2 h. The samples were subjected to Western blot analysis using anti-Flag antibodies. LRRK2 kinase assays were performed using LRRK2 phosphorylation and in vitro ^32P incorporation methods as described previously.

LRRK2 [2] = biological target: T1, LRRK2 (Mus musculus, UniProt Q5S006, G2019S); test: brain LRRK2 phosphorylation (kinase activity) in G2019S-LRRK2-BAC transgenic mice; assay type: in vivo; conditions: 20 mg/kg i.p., 1 h after injection
T1 construct: tissue Jackson Laboratory 012467; host or cells: brain homogenate of G2019S-LRRK2-BAC transgenic mice
T1 sequence (Q5S006 whole entry G2019S): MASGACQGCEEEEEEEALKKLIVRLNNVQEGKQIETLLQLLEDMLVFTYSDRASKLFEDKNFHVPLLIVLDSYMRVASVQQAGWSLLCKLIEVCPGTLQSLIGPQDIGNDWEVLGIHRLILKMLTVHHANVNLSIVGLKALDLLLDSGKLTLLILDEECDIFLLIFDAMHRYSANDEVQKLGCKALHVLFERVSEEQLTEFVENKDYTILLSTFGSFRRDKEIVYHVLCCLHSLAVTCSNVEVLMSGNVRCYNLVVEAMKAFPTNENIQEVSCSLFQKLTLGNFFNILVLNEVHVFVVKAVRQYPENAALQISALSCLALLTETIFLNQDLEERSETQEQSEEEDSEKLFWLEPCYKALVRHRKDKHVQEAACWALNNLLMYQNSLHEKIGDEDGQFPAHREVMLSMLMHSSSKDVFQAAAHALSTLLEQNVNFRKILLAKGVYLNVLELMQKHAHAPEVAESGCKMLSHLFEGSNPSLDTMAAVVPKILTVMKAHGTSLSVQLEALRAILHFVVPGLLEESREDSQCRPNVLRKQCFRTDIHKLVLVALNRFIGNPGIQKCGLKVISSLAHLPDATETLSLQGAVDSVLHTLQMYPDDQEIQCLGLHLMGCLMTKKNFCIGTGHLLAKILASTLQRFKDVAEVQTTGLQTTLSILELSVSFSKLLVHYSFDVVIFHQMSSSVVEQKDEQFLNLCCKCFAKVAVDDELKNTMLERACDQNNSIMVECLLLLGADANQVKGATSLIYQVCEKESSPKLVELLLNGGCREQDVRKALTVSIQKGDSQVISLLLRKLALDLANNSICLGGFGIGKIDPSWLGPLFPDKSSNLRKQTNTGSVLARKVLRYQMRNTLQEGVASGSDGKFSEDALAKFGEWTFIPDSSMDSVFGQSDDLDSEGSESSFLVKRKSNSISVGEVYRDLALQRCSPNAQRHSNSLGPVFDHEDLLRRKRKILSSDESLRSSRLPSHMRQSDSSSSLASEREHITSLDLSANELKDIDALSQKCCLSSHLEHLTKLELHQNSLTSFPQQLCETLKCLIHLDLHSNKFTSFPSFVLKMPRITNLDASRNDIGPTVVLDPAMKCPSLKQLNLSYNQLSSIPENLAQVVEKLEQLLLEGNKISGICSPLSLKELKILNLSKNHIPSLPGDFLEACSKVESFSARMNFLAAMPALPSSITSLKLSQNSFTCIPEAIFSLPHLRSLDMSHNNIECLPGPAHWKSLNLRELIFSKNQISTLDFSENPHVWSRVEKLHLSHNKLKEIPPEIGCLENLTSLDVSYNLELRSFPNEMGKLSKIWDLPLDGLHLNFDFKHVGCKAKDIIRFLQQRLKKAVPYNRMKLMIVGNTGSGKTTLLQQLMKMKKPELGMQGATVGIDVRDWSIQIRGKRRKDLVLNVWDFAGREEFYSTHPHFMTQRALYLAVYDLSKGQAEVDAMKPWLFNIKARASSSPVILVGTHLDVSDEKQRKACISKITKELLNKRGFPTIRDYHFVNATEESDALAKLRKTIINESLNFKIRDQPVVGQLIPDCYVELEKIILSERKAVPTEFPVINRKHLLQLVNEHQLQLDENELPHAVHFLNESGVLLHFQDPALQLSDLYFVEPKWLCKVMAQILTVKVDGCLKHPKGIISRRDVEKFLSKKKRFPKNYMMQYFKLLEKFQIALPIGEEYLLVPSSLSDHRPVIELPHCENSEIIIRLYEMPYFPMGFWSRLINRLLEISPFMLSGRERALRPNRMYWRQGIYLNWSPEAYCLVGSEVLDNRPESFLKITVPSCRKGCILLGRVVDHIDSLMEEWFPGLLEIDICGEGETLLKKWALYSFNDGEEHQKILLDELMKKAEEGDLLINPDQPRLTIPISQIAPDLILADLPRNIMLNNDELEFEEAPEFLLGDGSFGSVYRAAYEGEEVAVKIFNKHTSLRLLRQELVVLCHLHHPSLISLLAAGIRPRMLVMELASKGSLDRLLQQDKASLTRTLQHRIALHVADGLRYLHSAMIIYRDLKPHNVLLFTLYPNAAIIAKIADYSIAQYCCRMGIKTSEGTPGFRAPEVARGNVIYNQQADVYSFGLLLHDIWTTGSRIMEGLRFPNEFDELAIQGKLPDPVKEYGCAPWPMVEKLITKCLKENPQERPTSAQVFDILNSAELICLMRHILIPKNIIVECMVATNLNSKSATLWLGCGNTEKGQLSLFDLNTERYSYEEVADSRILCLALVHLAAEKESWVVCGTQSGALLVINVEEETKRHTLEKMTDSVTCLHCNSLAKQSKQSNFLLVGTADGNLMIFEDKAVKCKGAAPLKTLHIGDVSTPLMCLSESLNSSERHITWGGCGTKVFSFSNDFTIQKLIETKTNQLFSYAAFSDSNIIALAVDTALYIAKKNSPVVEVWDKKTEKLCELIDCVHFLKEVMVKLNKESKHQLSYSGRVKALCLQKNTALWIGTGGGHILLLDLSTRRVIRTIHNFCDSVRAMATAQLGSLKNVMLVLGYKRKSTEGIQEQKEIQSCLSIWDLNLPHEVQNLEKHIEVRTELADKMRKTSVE
Protocol: (§1) To assess whether 70 and 68 alter LRRK2 activities in vivo, G2019S-LRRK2-BAC transgenic mice were used. […] Only the effects of 68 on LRRK2 functions were tested in vivo using G2019S-LRRK2-BAC transgenic mice. Vehicle or 68 at 10 and 20 mg/kg was injected intraperitoneally for one hour. Mouse brain homogenates were subjected to LRRK2 autophosphorylation and GTP binding assays.
LRRK2 kinase assay was adapted from previous studies using autophosphorylation of cell lysates or brain homogenates. Briefly, HEK 293T were transiently transfected with various LRRK2 variants or kinase domain fragments for 36 h, followed by no serum starvation for 12 h, and then treated with compound 70 and 68 for 1 h. The cells were harvested using lysis buffer (Cell Signaling). Mouse brains were homogenated using RIPA buffer (Cell Signaling). The resulting cell lysates or brain homogenates were immunoprecipitated using anti-Flag antibodies. […] Quantification was performed with a phosphoimager (Bio-Rad Molecular Imager FX). […]
To assess the effects of FX2149 on LRRK2 in brains compared with 68, both 68 and FX2149 were injected intraperitoneally into G2019S-BAC-LRRK2 transgenic mice at 10 and 20 mg/kg doses. […] To further confirm the effect of FX2149, we also assessed a LRRK2 downstream effector, 4E-BP phosphorylation. […]

LRRK2 [3] = biological target: T1, LRRK2; test: brain LRRK2 GTP binding in G2019S-LRRK2-BAC transgenic mice; assay type: in vivo; conditions: 20 mg/kg i.p., 1 h after injection
Protocol: as §1
LRRK2 kinase assay was adapted from previous studies using autophosphorylation of cell lysates or brain homogenates. Briefly, HEK 293T were transiently transfected with various LRRK2 variants or kinase domain fragments for 36 h, followed by […] serum starvation for 12 h, and then treated with compound 70 and 68 for 1 h. The cells were harvested using lysis buffer (Cell Signaling). Mouse brains were homogenated using RIPA buffer (Cell Signaling). The resulting cell lysates or brain homogenates were immunoprecipitated using anti-Flag antibodies. The immunoprecipitates were subjected to Western blot using anti-phosphorylation LRRK2 antibodies at S935 and S2032 residues as described previously. In some cases, immunoprecipitates were incubated with kinase reaction buffer for 90 min at 30° C. containing 50 mM MgCl2, 500 μM ATP, and 10 μCi of [γ-^32P]ATP (3,000 Ci/mmol) followed by 4-12% SDS/PAGE separation and blotted onto PVDF membranes. Quantification was performed with a phosphoimager (Bio-Rad Molecular Imager FX). GTP binding assays were performed. Cell lysates or brain homogenates (100 μg protein/per reaction) were incubated with vehicle or compounds at 1-50 μM concentration for 1 h followed by addition of GTP-agarose beads (Sigma) for an additional 2 h at 4° C. The resulting beads were washed three times with cell lysis buffer, and bound protein was eluted by adding SDS-PAGE sample buffer and heating for 10 min at 72° C. Precipitates were subjected to Western blot analysis using anti-Flag antibodies.
To assess the effects of FX2149 on LRRK2 in brains compared with 68, both 68 and FX2149 were injected intraperitoneally into G2019S-BAC-LRRK2 transgenic mice at 10 and 20 mg/kg doses. One hour after the injection, the mouse brain homogenates were subjected to LRRK2 GTP binding and kinase assays. Both 68 (20 mg/kg) and FX2149 (10 mg/kg) reduced LRRK2 GTP binding activity in mouse brains (FIGS. 32 and 33). […] To further confirm the effect of FX2149, we also assessed a LRRK2 downstream effector, 4E-BP phosphorylation. 4E-BP is a […] that can be phosphorylated by LRRK2. […] FX2149 at a 10 mg/kg dose reduced 4E-BP up to 15% of the untreated control group, while 68 at a 20 mg/kg dose reduced 4E-BP up to 15% of the untreated control group.

G2019S-LRRK2 = biological target: T2, G2019S-LRRK2 (Homo sapiens, UniProt Q5S007, G2019S); test: LRRK2 phosphorylation (kinase) assay in HEK293T cells expressing G2019S-LRRK2; assay type: cell-based; conditions: 10 μM, 1 h
T2 construct: expressed in transfected cells; host or cells: HEK293T
T2 sequence (Q5S007 whole entry G2019S): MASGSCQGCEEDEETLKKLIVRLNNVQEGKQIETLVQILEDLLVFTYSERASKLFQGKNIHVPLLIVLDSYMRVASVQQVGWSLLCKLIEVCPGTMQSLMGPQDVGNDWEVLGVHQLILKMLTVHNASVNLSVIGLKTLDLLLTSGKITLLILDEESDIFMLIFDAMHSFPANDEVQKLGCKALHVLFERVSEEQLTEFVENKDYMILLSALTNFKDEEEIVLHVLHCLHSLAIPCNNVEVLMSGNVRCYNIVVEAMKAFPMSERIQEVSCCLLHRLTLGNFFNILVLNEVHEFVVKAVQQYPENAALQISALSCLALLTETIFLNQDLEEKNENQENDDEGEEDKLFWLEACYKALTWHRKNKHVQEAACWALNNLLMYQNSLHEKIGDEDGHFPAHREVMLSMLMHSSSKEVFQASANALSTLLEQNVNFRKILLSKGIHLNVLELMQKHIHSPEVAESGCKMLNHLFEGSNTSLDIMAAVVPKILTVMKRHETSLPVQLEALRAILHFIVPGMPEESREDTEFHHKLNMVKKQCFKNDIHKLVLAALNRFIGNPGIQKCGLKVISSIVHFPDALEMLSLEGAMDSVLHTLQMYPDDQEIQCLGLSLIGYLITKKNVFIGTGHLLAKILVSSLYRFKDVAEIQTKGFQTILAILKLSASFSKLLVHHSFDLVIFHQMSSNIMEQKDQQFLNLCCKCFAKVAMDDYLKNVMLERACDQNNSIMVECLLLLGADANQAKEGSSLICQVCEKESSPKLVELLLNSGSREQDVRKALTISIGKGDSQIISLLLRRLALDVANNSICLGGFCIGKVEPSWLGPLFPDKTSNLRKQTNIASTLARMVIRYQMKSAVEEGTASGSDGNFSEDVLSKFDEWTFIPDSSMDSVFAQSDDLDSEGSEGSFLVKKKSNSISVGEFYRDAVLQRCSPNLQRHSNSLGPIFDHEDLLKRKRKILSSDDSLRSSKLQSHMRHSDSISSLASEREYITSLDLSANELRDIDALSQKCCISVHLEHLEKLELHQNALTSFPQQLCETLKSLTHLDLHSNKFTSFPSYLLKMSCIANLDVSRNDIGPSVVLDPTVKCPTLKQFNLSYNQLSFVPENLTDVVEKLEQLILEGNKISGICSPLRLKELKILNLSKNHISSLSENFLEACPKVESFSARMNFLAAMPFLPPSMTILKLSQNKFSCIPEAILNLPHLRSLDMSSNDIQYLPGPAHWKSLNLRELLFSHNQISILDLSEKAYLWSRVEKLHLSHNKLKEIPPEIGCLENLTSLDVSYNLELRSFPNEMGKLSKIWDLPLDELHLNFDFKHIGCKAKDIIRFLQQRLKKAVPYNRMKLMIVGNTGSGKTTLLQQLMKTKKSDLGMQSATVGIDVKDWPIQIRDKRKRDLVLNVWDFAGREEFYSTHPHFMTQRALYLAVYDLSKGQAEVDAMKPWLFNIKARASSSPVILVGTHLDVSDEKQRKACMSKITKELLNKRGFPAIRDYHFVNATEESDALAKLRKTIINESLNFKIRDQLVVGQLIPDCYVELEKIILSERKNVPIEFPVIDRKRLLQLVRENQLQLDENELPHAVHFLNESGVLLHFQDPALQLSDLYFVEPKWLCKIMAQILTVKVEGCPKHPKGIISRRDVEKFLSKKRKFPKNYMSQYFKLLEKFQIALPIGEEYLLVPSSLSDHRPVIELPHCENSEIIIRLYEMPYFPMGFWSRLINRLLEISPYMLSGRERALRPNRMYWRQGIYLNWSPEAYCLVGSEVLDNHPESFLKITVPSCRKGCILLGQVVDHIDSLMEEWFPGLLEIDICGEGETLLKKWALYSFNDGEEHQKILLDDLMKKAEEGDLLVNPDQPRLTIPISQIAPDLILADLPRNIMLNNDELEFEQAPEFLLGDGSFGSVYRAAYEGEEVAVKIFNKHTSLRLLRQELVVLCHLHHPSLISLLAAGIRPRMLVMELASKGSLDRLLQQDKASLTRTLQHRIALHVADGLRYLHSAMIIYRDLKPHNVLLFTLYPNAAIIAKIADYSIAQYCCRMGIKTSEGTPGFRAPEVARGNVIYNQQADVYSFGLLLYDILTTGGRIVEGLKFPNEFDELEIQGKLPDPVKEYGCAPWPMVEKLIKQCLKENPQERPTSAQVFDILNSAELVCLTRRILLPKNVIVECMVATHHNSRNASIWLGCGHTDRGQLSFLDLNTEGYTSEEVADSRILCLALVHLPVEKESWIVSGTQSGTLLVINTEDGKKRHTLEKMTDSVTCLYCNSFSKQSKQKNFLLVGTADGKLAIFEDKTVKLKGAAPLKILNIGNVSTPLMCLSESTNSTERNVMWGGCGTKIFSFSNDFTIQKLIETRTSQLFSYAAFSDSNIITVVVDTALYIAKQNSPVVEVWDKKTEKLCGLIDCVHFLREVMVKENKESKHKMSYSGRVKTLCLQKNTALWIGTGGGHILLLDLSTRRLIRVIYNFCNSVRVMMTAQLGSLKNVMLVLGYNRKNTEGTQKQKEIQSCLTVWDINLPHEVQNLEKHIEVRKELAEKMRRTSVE
Protocol: LRRK2 kinase assay was adapted from previous studies using autophosphorylation of cell lysates or brain homogenates. Briefly, HEK 293T were transiently transfected with various LRRK2 variants or kinase domain fragments for 36 h, followed by no serum starvation for 12 h, and then treated with compound 70 and 68 for 1 h. The cells were harvested using lysis buffer (Cell Signaling). Mouse brains were homogenated using RIPA buffer (Cell Signaling). The resulting cell lysates or brain homogenates were immunoprecipitated using anti-Flag antibodies. The immunoprecipitates were subjected to Western blot using anti-phosphorylation LRRK2 antibodies at S935 and S2032 residues as described previously. In some cases, immunoprecipitates were incubated with kinase reaction buffer for 90 min at 30° C. containing 50 mM MgCl2, 500 μM ATP, and 10 μCi of [γ-^32P]ATP (3,000 Ci/mmol) followed by 4-12% SDS/PAGE separation and blotted onto PVDF membranes. Quantification was performed with a phosphoimager (Bio-Rad Molecular Imager FX). GTP binding assays were performed. […]
For LRRK2 phosphorylation assays, HEK293T cells were transfected with various LRRK2 variants for 36 h, then were incubated in media without serum for 12 hours. […] The LRRK2 autophosphorylation with ^32P incorporation was separated by SDS/PAGE gel and quantified with a phosphoimager (Bio-Rad Molecular Imager).

CC(C)NC(=O)c1cccc(NS(=O)(=O)c2cccnc2)c1 [FX2151, N-isopropyl-3-(pyridine-3-sulfonamido)benzamide]
did not alter: effect on wild type and PD-linked mutant LRRK2 GTP-binding activity (LRRK2 [1]) | effect on brain LRRK2 phosphorylation (kinase activity) (LRRK2 [2]) | effect on brain LRRK2 GTP binding activity (LRRK2 [3]) | effect on LRRK2 phosphorylation (G2019S-LRRK2)
